The CheMixHub viscosity set

Assay: xn = mol fraction of the nth substance listed

CCCCC(CC)COP(=O)(O)OCC(CC)CCCC (configuration not stated) + CCCC(=O)O
303.15 K, 101 kPa
Conditions	viscosity [mPa·s]
x1 = 0.0532	1.784
x1 = 0.1098	2.592
x1 = 0.1892	3.578
x1 = 0.2612	4.602
x1 = 0.3278	5.698
x1 = 0.4066	7.172
x1 = 0.5002	8.886
x1 = 0.6095	11.21
x1 = 0.6884	12.9
x1 = 0.7405	14.01
x1 = 0.8096	15.38
x1 = 0.8811	16.81
x1 = 0.9342	17.79

CCCCC(CC)COP(=O)(O)OCC(CC)CCCC (configuration not stated) + CCCCCCC
viscosity [mPa·s], 101 kPa
Conditions	x1 = 0.0334	x1 = 0.0721	x1 = 0.1175	x1 = 0.1661	x1 = 0.2371	x1 = 0.3181	x1 = 0.4202	x1 = 0.5541	x1 = 0.7367
303.15 K	0.4827	0.6407	0.866	1.16	1.699	2.494	3.805	6.131	10.6
313.15 K	0.4218	0.5411	0.7073	0.92	1.301	1.851	2.738	4.282	7.192
323.15 K	0.3705	0.4589	0.5793	0.7299	0.9935	1.364	1.95	2.944	4.774

CCCCC(CC)COP(=O)(O)OCC(CC)CCCC (configuration not stated) + CCCCCCCCO
viscosity [mPa·s], 101 kPa
Conditions	303.15 K	313.15 K	323.15 K
x1 = 0.0433	6.599	4.84	3.531
x1 = 0.0469	6.819	–	–
x1 = 0.073	6.889	–	–
x1 = 0.0919	7.065	5.143	3.719
x1 = 0.1008	7.185	–	–
x1 = 0.1474	7.624	5.504	3.942
x1 = 0.1532	7.958	–	–
x1 = 0.2125	8.316	5.948	4.214
x1 = 0.276	9.907	–	–
x1 = 0.288	9.17	6.493	4.545
x1 = 0.3227	10.59	–	–
x1 = 0.377	10.25	7.177	4.957
x1 = 0.4481	12.38	–	–
x1 = 0.4848	11.66	8.068	5.489
x1 = 0.5519	13.89	–	–
x1 = 0.6176	13.58	9.263	6.195
x1 = 0.6183	14.78	–	–
x1 = 0.7209	16.04	–	–
x1 = 0.7843	16.27	10.92	7.162
x1 = 0.8137	17.09	–	–
x1 = 0.922	18.4	–	–

CCCCCCn1cc[n+](C)c1.F[P-](F)(F)(F)(F)F + CCCCCCn1cc[n+](C)c1.[Cl-]
viscosity [mPa·s], 101 kPa
Conditions	303.15 K	308.15 K	313.15 K	318.15 K	323.15 K
x2 = 0.2	962.7	679	486.2	357.7	–
x2 = 0.4	–	–	854.7	598.9	433.5
x2 = 0.6	–	–	–	–	705.5

CCCCC(CC)COP(=O)(O)OCC(CC)CCCC (configuration not stated) + CCCCO
303.15 K, 101 kPa
Conditions	viscosity [mPa·s]
x1 = 0.0419	2.97
x1 = 0.0842	3.693
x1 = 0.1206	4.321
x1 = 0.2162	6.156
x1 = 0.3122	8.132
x1 = 0.4528	11.18
x1 = 0.5519	12.85
x1 = 0.6567	14.57
x1 = 0.761	16.12
x1 = 0.8628	17.52
x1 = 0.9345	18.4

C[N+](=O)[O-] + CCCCO
viscosity [mPa·s], 101 kPa
Conditions	298.15 K	303.15 K	308.15 K	313.15 K	318.15 K	323.15 K
x1 = 0.1	–	1.815	1.607	1.438	1.283	1.156
x1 = 0.1589	1.93	–	–	–	–	–
x1 = 0.2	–	1.448	1.305	1.172	1.067	0.968
x1 = 0.299	1.499	–	–	–	–	–
x1 = 0.2999	–	1.218	1.107	0.996	0.906	0.828
x1 = 0.4	–	1.052	0.955	0.868	0.8	0.73
x1 = 0.4222	1.172	–	–	–	–	–
x1 = 0.5016	–	0.918	0.834	0.762	0.7	0.646
x1 = 0.5319	0.9681	–	–	–	–	–
x1 = 0.6017	–	0.802	0.73	0.672	0.622	0.578
x1 = 0.6302	0.8288	–	–	–	–	–
x1 = 0.6991	–	0.706	0.654	0.605	0.565	0.527
x1 = 0.7188	0.7435	–	–	–	–	–
x1 = 0.7993	0.6894	–	–	–	–	–
x1 = 0.8059	–	0.624	0.583	0.549	0.518	0.488
x1 = 0.8718	0.6557	–	–	–	–	–
x1 = 0.903	–	0.586	0.553	0.524	0.499	0.474
x1 = 0.9387	0.6378	–	–	–	–	–

O=Cc1ccco1 + CCCC[P+](C)(CCCC)CCCC.COS(=O)(=O)[O-]
viscosity [mPa·s], 100 kPa
Conditions	293.15 K	298.15 K	303.15 K	308.15 K	313.15 K	318.15 K	323.15 K
x2 = 0.062	2.53	–	–	–	–	–	–
x2 = 0.1	8.96	3.49	3.13	2.99	2.64	2.46	–
x2 = 0.142	–	–	4.13	3.99	3.64	3.46	–
x2 = 0.191	41.29	–	–	5.55	5.56	4.32	4.01
x2 = 0.249	64.53	30.58	–	–	–	–	–
x2 = 0.317	–	46.54	24.83	–	8.79	–	6.01
x2 = 0.399	–	72.22	39.81	–	–	9.92	–
x2 = 0.499	–	–	–	33.52	–	–	–
x2 = 0.624	270.6	–	–	58.28	–	32.22	26.66
x2 = 0.732	396.3	265.6	–	133.5	–	81.46	73.46
x2 = 0.823	501.6	350.8	255.5	–	–	116.5	99.45
x2 = 0.863	555	392.6	287.1	–	–	–	–
x2 = 0.91	614.7	435.6	319.2	–	–	–	–
x2 = 0.951	664.4	475.8	351.2	265.8	–	158.5	–

O=S(=O)([N-]S(=O)(=O)C(F)(F)F)C(F)(F)F.On1cc[n+](O)c1 + CCCO
100 kPa
Conditions	viscosity [mPa·s]
293.15 K, x1 = 0.3992	31.05
293.15 K, x1 = 0.5999	65.75
303.15 K, x1 = 0.7996	77.95
313.15 K, x1 = 0.4985	20.85
